Where “and” joins values, the source holds several entries; their conditions need not be identical. Equal entries are not always repeated. Where two headings read alike, the source gives them in different places.
Key:
KCNQ4 = KCNQ4 (Homo sapiens, UniProt P56696); test: TEVC in Xenopus oocytes; format: cell-based; details: for Non-normalized tail current V0.5: Ctrl 8.6 ± 4.3; for Normalized tail current V0.5: Ctrl -8.7 ± 0.8
Excerpt: (§4) cRNA transcripts encoding human KCNQ1, KCNQ2, KCNQ3, KCNQ4, KCNQ5, KCNA1, or KCNE1 were generated by in vitro transcription using the T7 polymerase mMessage mMachine kit (Thermo Fisher Scientific), after vector linearization, from complementary DNA (cDNA) sub-cloned into plasmids incorporating Xenopus laevis β-globin 5′ and 3′ untranslated regions flanking the coding region to enhance translation and cRNA stability. cRNA was quantified by spectrophotometry. […] Defolliculated stage V and VI Xenopus laevis oocytes (Ecocyte Bioscience, Austin, TX) were injected with Kv channel α subunit cRNAs (5–10 ng).
(§5) Oocytes were placed in a small-volume oocyte bath (Warner) and viewed with a dissection microscope. Chemicals were sourced from Sigma. Bath solution was (in mM): 96 NaCl, 4 KCl, 1 MgCl2, 1 CaCl2, 10 HEPES (pH 7.6). […] Valeric acid was stored as a 5 mM stock in Ringer’s solution at 4 °C and diluted to working concentrations each experimental day. β-hydroxybutyric acid was stored at 4 °C as a 480 mM stock in 100% ethanol and diluted to working concentrations each experimental day. All compounds were introduced to the recording bath via gravity perfusion at a constant flow of 1 ml per min for 3 min prior to recording. Pipettes were of 1–2 MΩ resistance when filled with 3 M KCl. Currents were recorded in response to pulses between −80 mV and +40 mV at 20 mV intervals, or a single pulse to +40 mV, from a holding potential of −80 mV, to yield current-voltage relationships, current magnitude, and for quantifying activation rate. Deactivation was recorded at −80 mV after a single activating pulse to +40 mV, from a holding potential of −80 mV. […] TEVC data analysis was performed with Clampfit (Molecular Devices) and Graphpad Prism software (GraphPad, San Diego, CA, USA); values are stated as mean ± SEM. Normalized tail currents were plotted versus prepulse voltage and fitted with a single Boltzmann function:1 g=(A1-A2)/1+expV1/2-V∕VS+A2, where g is the normalized tail conductance, A1 is the initial value at −∞, A2 is the final value at +∞, V1/2 is the half-maximal voltage of activation, and VS the slope factor. Activation and deactivation kinetics were fitted with single exponential functions.

KCNQ5 = KCNQ5 (Homo sapiens, UniProt Q9NR82); test: TEVC in Xenopus oocytes; format: cell-based; details: for Slope: Ctrl 9.6 ± 1.9; for Normalized tail current V0.5: Ctrl -41.7 ± 1.5; for Non-normalized tail current V0.5: Ctrl -[…]
Excerpt: as §4, §5

KCNA1 (Kv1.1) = KCNA1 (Kv1.1) (Homo sapiens, UniProt Q09470); test: TEVC in Xenopus oocytes; format: cell-based; details: for Slope: Ctrl 6.2 ± 0.4; for Normalized tail current V0.5: Ctrl -29.8 ± 0.69
Excerpt: Chemicals were sourced from Sigma.

KCNQ1-KCNE1 = KCNQ1-KCNE1 (Homo sapiens, UniProt P51787); test: TEVC and resting membrane potential in Xenopus oocytes; format: cell-based
Excerpt: as §4, §5

[1] = system: water-injected Xenopus laevis oocytes; test: TEVC of water-injected oocytes (endogenous currents, EM); format: cell-based
Excerpt: Chemicals were sourced from Sigma. […] […].

[2] = target: T1, KCNQ2/3 channels expressed in CHO cells (Mus musculus, UniProt Q8K3F6+Q9Z351); test: Whole-cell patch clamp of transfected CHO cells; format: cell-based; details: 100 µM GABA
T1 construct: expressed in transfected cells; host or cells: CHO cells (ATCC), transient transfection with TransIT-LT1
Procedure: (§1) CHO cells (ATCC) were seeded on poly-L-lysine-treated glass coverslips in 24-well plates and transfected the next day using 0.5 µg each of mouse KCNQ2 and KCNQ3 cDNA in a CMV vector per well in normal media (DMEM with 10% FBS and 1% penicillin/streptomycin). The transfection reagent used was TransIT-LT1 (Mirus Bio LLC, Madison, WI, USA) and cells were patched 48–72 h post transfection. […] Media was replenished every 3 days and cultures were split once a week. […] Cell culture plastic ware and reagents were purchased from VWR and Fisher Scientific unless otherwise stated.
(§2) For both CHO cells and PC12 cells, currents were recorded in whole-cell mode at room temperature (22–25 °C) with 3–6 MΩ borosilicate glass electrodes backfilled with solution containing (in mM): 90 K acetate, 20 KCl, 40 HEPES, 3 MgCl2, 1 CaCl2, 3 EGTA-KOH, 2 MgATP; pH 7.2.
(§3) The pClamp8 (Molecular Devices) software package was used for data acquisition and Clampfit was used for analysis, along with Graphpad Prism 7.0 (Graphpad).

[3] = system: native M-current in PC12 cells; test: Whole-cell patch clamp of NGF-differentiated PC12 cells; format: cell-based, rat; details: 100 µM GABA + 100 µM picrotoxin + 10 µM CGP55845
Procedure: as §1, §2, §3

[4] = system: native M-current in mouse DRG neurons; test: Perforated patch-clamp of dorsal root ganglion neurons; format: cell-based; details: 100 µM GABA
Procedure: Adult male mice were purchased from Jackson Labs and then housed and used according to a protocol approved by the Institutional Animal Care and Use Committee of University of California, Irvine, and consistent with recommendations in the NIH Guide for the Care and Use of Laboratory Animals (8th edition, 2011). […]. DRG neurons were then cultured on poly-L-lysine and laminin-coated plastic coverslips in RPMI 1640 with 10% horse serum and 1% penicillin/streptomycin at 37 °C for 1–4 days before electrophysiological recordings were performed using perforated patch clamp. Amphotericin B (VWR, Radnor, PA) was dissolved in DMSO at 5 mg/ml (stock solution), then diluted to 150–200 µg/ml in intracellular solution and sonicated with a probe sonicator on ice for 5 s, kept at room temperature in the dark, and replaced every hour with a fresh solution from the stock. The working amphotericin solution was backfilled into borosilicate glass electrodes (3–5 MΩ) previously tip-filled to ~0.5 mm with intracellular solution lacking amphotericin B, immediately prior to sealing onto individual neurons. After whole-cell configuration was achieved and capacitance stabilized, whole-cell recordings were performed essentially as described in the prior paragraph, with the following differences: neurons were held at −20 mV to inactivate other channels before the test pulses; offline leak subtraction was performed.

[5] = target: KCNQ3* (expression-optimized KCNQ3-A315T mutant) (Homo sapiens, UniProt O43525, A315T); details: for Slope: Ctrl 4.5 ± 0.9; for Normalized tail current V0.5: Ctrl -51.4 ± 1.9; for Non-normalized tail current V0.5: Ctrl -47.5 ± 4.4
Excerpt: as §4, §5

KCNQ1 = KCNQ1 (Homo sapiens, UniProt P51787); test: Two-electrode voltage clamp (TEVC) in Xenopus oocytes
Excerpt: as §4
Oocytes were placed in a small-volume oocyte bath (Warner) and viewed with a dissection microscope. Chemicals were sourced from Sigma. Bath solution was (in mM): 96 NaCl, 4 KCl, 1 MgCl2, 1 CaCl2, 10 HEPES (pH 7.6). […] Valeric acid was stored as a 5 mM stock in Ringer’s solution at 4 °C and diluted to working concentrations each experimental day. β-hydroxybutyric acid was stored at 4 °C as a 480 mM stock in 100% ethanol and diluted to working concentrations each experimental day. All compounds were introduced to the recording bath via gravity perfusion at a constant flow of 1 ml per min for 3 min prior to recording. Pipettes were of 1–2 MΩ resistance when filled with 3 M KCl. Currents were recorded in response to pulses between −80 mV and +40 mV at 20 mV intervals, or a single pulse to +40 mV, from a holding potential of −80 mV, to yield current-voltage relationships, current magnitude, and for quantifying activation rate. Deactivation was recorded at −80 mV after a single activating pulse to +40 mV, from a holding potential of −80 mV. For wortmannin studies, oocytes were incubated in 30 µM wortmannin for 3 h at 16 °C prior to recording. TEVC data analysis was performed with Clampfit (Molecular Devices) and Graphpad Prism software (GraphPad, San Diego, CA, USA); values are stated as mean ± SEM. […]

[6] = target: homomeric wild-type human KCNQ3 (Homo sapiens, UniProt O43525); test: 3H-GABA radioligand binding (single concentration, cold competition, saturation) in Xenopus oocytes; details: cold (unlabeled) GABA 1 mM
Procedure: Defolliculated stage V and VI Xenopus laevis oocytes (Ecocyte Bioscience, Austin, TX) were injected with Kv channel α subunit cRNAs (5–10 ng).
Oocytes were then washed four times in 16 °C ND96, then transferred to individual wells in a 96-well plate and lysed in 0.2% SDS in ND96. Each oocyte lysate was transferred to a scintillation vial containing 5 ml cytoscint scintillation cocktail fluid (MP Biomedicals, Santa Ana, CA). Vials were capped, shaken, and then allowed to sit at room temperature for at least 30 min before scintillation counting in a Beckmann Coulter LS6500 liquid scintillation counter. […] Oocytes were next incubated in 1 ml per group homogenization buffer (in mM, 150 NaCl, 2 CaCl2, 20 Tris, 2% Nonidet P-40) with 2% protease inhibitor cocktail (Pierce) and then lysed with a 20 ml pipette tip, vortexed, centrifuged at 4000 r.p.m. (10 min, 4 °C). The supernatant was mixed in Eppendorf tubes end-over-end overnight at 4 °C with high-capacity streptavidin agarose beads (Thermo Fisher, Huntington Beach, CA) (20 µl per group).
For the binding competition assay, the control group was treated as before. […] Each oocyte lysate was transferred to a scintillation vial containing 5 ml cytoscint scintillation cocktail fluid (MP Biomedicals). […] Bmax and Kd values were calculated using automated nonlinear regression analysis in GraphPad prism.

[7] = especially at subthreshold potentials

KCNA1 (Kv1.1), sequence (Q09470 whole entry): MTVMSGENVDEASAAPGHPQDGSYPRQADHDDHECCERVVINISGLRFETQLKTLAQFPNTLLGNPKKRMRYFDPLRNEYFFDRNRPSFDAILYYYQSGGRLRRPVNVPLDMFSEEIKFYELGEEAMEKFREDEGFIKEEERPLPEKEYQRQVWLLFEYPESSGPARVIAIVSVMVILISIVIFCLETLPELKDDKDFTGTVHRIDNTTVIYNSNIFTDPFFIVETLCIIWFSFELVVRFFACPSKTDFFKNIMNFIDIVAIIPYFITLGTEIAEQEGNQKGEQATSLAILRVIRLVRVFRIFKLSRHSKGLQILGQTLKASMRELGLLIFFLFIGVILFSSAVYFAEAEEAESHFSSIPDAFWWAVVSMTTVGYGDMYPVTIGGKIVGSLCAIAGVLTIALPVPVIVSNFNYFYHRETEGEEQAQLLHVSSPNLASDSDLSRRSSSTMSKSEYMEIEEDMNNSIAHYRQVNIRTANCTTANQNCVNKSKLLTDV
homomeric wild-type human KCNQ3, sequence (O43525 whole entry): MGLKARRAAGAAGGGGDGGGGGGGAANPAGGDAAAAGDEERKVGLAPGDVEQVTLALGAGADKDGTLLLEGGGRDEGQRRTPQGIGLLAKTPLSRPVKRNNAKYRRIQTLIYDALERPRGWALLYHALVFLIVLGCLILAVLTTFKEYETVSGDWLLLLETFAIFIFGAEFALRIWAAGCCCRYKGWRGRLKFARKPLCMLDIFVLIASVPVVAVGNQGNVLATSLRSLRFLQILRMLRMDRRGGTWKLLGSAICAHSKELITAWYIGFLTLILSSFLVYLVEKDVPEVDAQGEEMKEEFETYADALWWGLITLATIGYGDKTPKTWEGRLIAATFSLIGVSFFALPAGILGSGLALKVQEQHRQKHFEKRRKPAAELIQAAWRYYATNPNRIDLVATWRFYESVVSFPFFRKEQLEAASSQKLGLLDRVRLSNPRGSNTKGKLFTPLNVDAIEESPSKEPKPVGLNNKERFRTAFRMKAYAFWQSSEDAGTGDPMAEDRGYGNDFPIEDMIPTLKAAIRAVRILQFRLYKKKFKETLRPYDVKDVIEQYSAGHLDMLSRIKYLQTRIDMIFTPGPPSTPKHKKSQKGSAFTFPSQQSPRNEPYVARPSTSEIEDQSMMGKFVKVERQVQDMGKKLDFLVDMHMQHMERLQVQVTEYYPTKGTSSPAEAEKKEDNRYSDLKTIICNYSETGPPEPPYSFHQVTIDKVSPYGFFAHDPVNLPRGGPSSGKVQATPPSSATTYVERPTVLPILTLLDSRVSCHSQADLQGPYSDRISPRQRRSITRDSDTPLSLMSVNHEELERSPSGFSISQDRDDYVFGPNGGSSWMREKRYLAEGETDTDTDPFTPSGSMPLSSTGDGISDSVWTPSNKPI

Structure (SMILES): NCCCC(=O)O [GABA, γ-aminobutyric acid]
- GABA sensitivity of channel activity (KCNQ4): relatively GABA-insensitive
- Non-normalized tail current V0.5 (KCNQ4; 0.1 µM GABA): -8.8 ± 4.3 mV
- Normalized tail current V0.5 (KCNQ4; 0.1 µM GABA): -9.6 ± 0.7 mV
- Non-normalized tail current V0.5 (KCNQ4; 1 µM GABA): -9.0 ± 4.3 mV
- Normalized tail current V0.5 (KCNQ4; 1 µM GABA): -9.6 ± 0.8 mV
- Non-normalized tail current V0.5 (KCNQ4; 10 µM GABA): -9.3 ± 3.7 mV
- Normalized tail current V0.5 (KCNQ4; 10 µM GABA): -9.8 ± 0.8 mV
- Non-normalized tail current V0.5 (KCNQ4; 100 µM GABA): -9.0 ± 3.8 mV
- Normalized tail current V0.5 (KCNQ4; 100 µM GABA): -10.3 ± 0.8 mV
- Non-normalized tail current V0.5 (KCNQ4; 1 mM GABA): -8.4 ± 3.4 mV
- Normalized tail current V0.5 (KCNQ4; 1 mM GABA): -8.8 ± 0.8 mV
- Slope (KCNQ5; 0.001 µM GABA): 9.4 ± 4.3 mV
- Normalized tail current V0.5 (KCNQ5; 0.001 µM GABA): -41.9 ± 2.9 mV
- Non-normalized tail current V0.5 (KCNQ5; 0.001 µM GABA): -41.8 ± 2.8 mV
- Slope (KCNQ5; 0.01 µM GABA): 7.6 ± 2.4 mV
- Normalized tail current V0.5 (KCNQ5; 0.01 µM GABA): -50.1 ± 2.9 mV
- Non-normalized tail current V0.5 (KCNQ5; 0.01 µM GABA): -49.5 ± 2.5 mV
- Slope (KCNQ5; 0.1 µM GABA): 7.4 ± 1.2 mV
- Normalized tail current V0.5 (KCNQ5; 0.1 µM GABA): -53.9 ± 1.7 mV
- Non-normalized tail current V0.5 (KCNQ5; 0.1 µM GABA): -51.3 ± 2.1 mV
- Slope (KCNQ5; 1 µM GABA): 7.6 ± 1.2 mV
- Normalized tail current V0.5 (KCNQ5; 1 µM GABA): -54.2 ± 1.6 mV
- Non-normalized tail current V0.5 (KCNQ5; 1 µM GABA): -51.2 ± 2.6 mV
- Slope (KCNQ5; 10 µM GABA): 8.4 ± 1.4 mV
- Normalized tail current V0.5 (KCNQ5; 10 µM GABA): -57.0 ± 1.8 mV
- Non-normalized tail current V0.5 (KCNQ5; 10 µM GABA): -54.5 ± 2.3 mV
- Slope (KCNQ5; 100 µM GABA): 8.5 ± 1.5 mV
- Normalized tail current V0.5 (KCNQ5; 100 µM GABA): -57.4 ± 1.8 mV
- Non-normalized tail current V0.5 (KCNQ5; 100 µM GABA): -54.5 ± 2.7 mV
- Slope (KCNQ5; 1 mM GABA): 8.8 ± 1.5 mV
- Normalized tail current V0.5 (KCNQ5; 1 mM GABA): -58.3 ± 1.8 mV
- Non-normalized tail current V0.5 (KCNQ5; 1 mM GABA): -56.4 ± 2.4 mV
- higher GABA sensitivity of KCNQ5 than KCNQ3* (KCNQ5; EC50 ratio at −60 mV): 17 fold
- EC50 (KCNQ5; at −60 mV): 60 ± 10 nM
- effect on channel (KCNQ5; [7]): activates
- Slope (KCNA1 (Kv1.1); 0.1 µM GABA): 6.4 ± 0.5 mV
- Normalized tail current V0.5 (KCNA1 (Kv1.1); 0.1 µM GABA): -29.3 ± 0.88 mV
- Slope (KCNA1 (Kv1.1); 1 µM GABA): 6.1 ± 0.5 mV
- Normalized tail current V0.5 (KCNA1 (Kv1.1); 1 µM GABA): -28.4 ± 0.89 mV
- Slope (KCNA1 (Kv1.1); 10 µM GABA): 6.1 ± 0.5 mV
- Normalized tail current V0.5 (KCNA1 (Kv1.1); 10 µM GABA): -27.6 ± 0.82 mV
- Slope (KCNA1 (Kv1.1); 100 µM GABA): 6.2 ± 0.4 mV
- Normalized tail current V0.5 (KCNA1 (Kv1.1); 100 µM GABA): -27.2 ± 0.67 mV
- Slope (KCNA1 (Kv1.1); 1 mM GABA): 6.4 ± 0.6 mV
- Normalized tail current V0.5 (KCNA1 (Kv1.1); 1 mM GABA): -27.3 ± 0.93 mV
- effect on peak current or normalized tail current (KCNA1 (Kv1.1); GABA 1 mM): no effect
- Normalized tail current V0.5 (KCNQ1-KCNE1; 100 µM GABA, Ctrl 6.1 ± 0.8): 3.3 ± 1.2 mV
- Non-normalized tail current V0.5 (KCNQ1-KCNE1; 100 µM GABA, Ctrl 6.3 ± 2.6): 3.1 ± 2.7 mV
- Slope (KCNQ1-KCNE1; 100 µM GABA, Ctrl 14 ± 0.7): 13.2 ± 0.9 mV
- effect on KCNQ1-KCNE1 activity (KCNQ1-KCNE1; GABA 100 µM): no effect
- effect on resting membrane potential (EM) (KCNQ1-KCNE1; GABA 100 µM, unclamped oocytes): does not alter
- effect on endogenous currents or resting membrane potential ([1]; GABA 100 µM): no effect
- effect on water-injected oocytes ([1]; GABA 1 mM): neither did increasing GABA to 1 mM produce any noticeable effects
- Slope ([2]; Ctrl 14.3 ± 1.6): 16.2 ± 3.0 mV
- Normalized tail current V0.5 ([2]; Ctrl -2.9 ± 2.7): -17.5 ± 3.7 mV and −17.5 mV
- Slope ([3]; blockers alone 17.4 ± 3.0): 16.0 ± 3.2 mV
- Normalized tail current V0.5 ([3]; blockers alone -7.1 ± 7.6): -20.6 ± 4.9 mV
- decrease of deactivating current at −60 mV [4]: ~ 25%
- mean GABA-dependent change in current ([4]; at −20 mV): no mean change
- mean GABA-dependent current increase ([4]; at −60 mV, picrotoxin + CGP55845 present): threefold
- efficacy of channel activation, KCNQ3* compared to KCNQ5 [5]: more than threefold greater
- Slope ([5]; 0.1 µM GABA): 4.6 ± 0.9 mV
- Normalized tail current V0.5 ([5]; 0.1 µM GABA): -54.2 ± 1.5 mV
- Slope ([5]; 1 µM GABA): 4.3 ± 0.8 mV
- Slope ([5]; 10 µM GABA): 4.3 ± 3.5 mV
- Non-normalized tail current V0.5 ([5]; 10 µM GABA): -58.4 ± 2.7 mV
- Normalized tail current V0.5 ([5]; 10 µM GABA): -58.9 ± 1.0 mV
- Slope ([5]; 100 µM GABA): 4.8 ± 3.0 mV
- Non-normalized tail current V0.5 ([5]; 100 µM GABA): -59.4 ± 2.8 mV
- Normalized tail current V0.5 ([5]; 100 µM GABA): -59.8 ± 0.9 mV
- Slope ([5]; 1 mM GABA): 4.7 ± 3.3 mV
- Non-normalized tail current V0.5 ([5]; 1 mM GABA): -59.3 ± 2.5 mV
- Normalized tail current V0.5 ([5]; 1 mM GABA): -59.6 ± 0.9 mV
- effect on channel [5, 7]: activates
- GABA sensitivity of channel activity (KCNQ1): relatively GABA-insensitive
- Non-normalized tail current V0.5 (KCNQ1; 100 µM GABA, Ctrl -30.1 ± 2.2): -32.6 ± 1.9 mV
- Normalized tail current V0.5 (KCNQ1; 100 µM GABA, Ctrl -34.1 ± 0.9): -34.2 ± 0.8 mV
- competition of 3H-GABA binding [6]: outcompeted
